In PubChem BioAssay AID179 (DTP/NCI, 2004):
“And” between values parts separate entries of the source, which are not always exact repeats. Equal values may be shown once. The source made the active and inactive calls.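 How the source made its calls: active means compounds giving half or more protection of infected cells from virus-caused growth loss, again on retest; inactive means the rest.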 Where a SMILES comes first, the peptide text is derived from it. The star is where a group is joined. Boc = CC(C)(C)OC(=O)*

Test system: CEM cells HIV-1 protection, formazan growth assay
Assay: NCI AIDS Antiviral Assay
Details: for IC50: measured here: growth of uninfected CEM cells
How it was run: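 Human CEM cells, uninfected and HIV-1-infected, exposed to five drug concentrations; growth measured by soluble formazan assay and scored as percent protection from infection, with protecting compounds retested.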

| SMILES | EC50 [µM] | IC50 | outcome |
| --- | --- | --- | --- |
| NS(=O)(=O)c1ccc(Nc2c3ccccc3nc3ncccc23)cc1 | > 200 | > 200 µM | – |
| COc1cnc([C@H]2CCC3[C@@H]4CC=C5C[C@@H](O)CC[C@]5(C)C4CC[C@@]32C)s1 (stereo not given in full) | > 4.9 | > 4.9 µM | – |
| O=C(O)CN1CCN2CCOCCN(CC1)CCN(CC(=O)O)CC2 | > 200 | > 200 µM | – |
| CC(=O)Oc1ccc(C)c2c1[C@H]1CC[C@]3(C)[C@@H](OC(C)=O)CC[C@H]3[C@@H]1CC2 | > 200 | 32.4 µM | – |
| CN1C(=O)c2ccccc2Sc2ccccc21 | 6.46 | 115 µM | – |
| Cc1cc(NC(=O)Nc2ccc(F)cc2)no1 | > 200 | > 200 µM | – |
| COc1cc(OC)c2c(=O)c3c([N+](=O)[O-])cccc3n(C)c2c1 | > 100 | > 100 µM | – |
| C/C(=N\NC(=O)c1ccccc1O)c1c(O)cc(C)oc1=O | > 85.1 | 70.8 µM | – |
| CC1=C(/C=C/C(C)=C/C=C(C(=O)O)\C(C)=C\C(=O)O)C(C)(C)CCC1 | > 200 | > 200 µM | – |
| CCN(C(=O)N[C@@H](CC(C)C)C(=O)NCC(=O)OC)c1ccccc1 | > 200 | 110 µM | – |
| CC(/C=N/N(C)C1=NCCCN1)=N/N(C)C1=NCCCN1 | > 200 | > 200 µM | – |
| Brc1ccc(N2N=NC3CN(c4ccccc4)CC32)cc1 (stereo not given) | > 100 | 58.9 µM | – |
| CCOC(=O)c1nc2cc(Cl)ccc2[nH]c1=O | > 200 | 105 µM | – |
| CCOC(=O)c1ccc(N(CC/C(CN)=N/NC(N)=O)C(C)=O)cc1 | > 646 | 363 µM | – |
| COc1ccc(Nc2cc[nH]c(=O)c2NC(C)=O)cc1 | > 479 | > 479 µM | – |
| C/C=C(/C)C(=O)O[C@@H]1c2c(C)coc2C[C@H]2CC[C@H](O)[C@H](C)[C@]21C | > 200 | 58.9 µM | – |
| O=C(CC(=O)c1ccc([N+](=O)[O-])cc1)C(=O)Nc1nccs1 | > 186 | 155 µM | – |
| O=C(NC1CCCCC1)/C(=C\c1ccc2c(c1)OCO2)NC(=O)c1ccccc1 | > 200 | > 200 µM | – |
| C[C@]12CC[C@H](O)CC1CC[C@@H]1C2CC[C@]2(C)NC(=O)CCC12 (stereo not given in full) | – | – | inactive |
| O=C(/C=C/c1ccc(Cl)c(Cl)c1)Oc1ccc(/C=C2\CCCCC2=O)cc1 | > 100 | 5.25 µM | – |
| CC(C)(C)OC(=O)c1cc(NC(=S)c2ccccc2)ccc1Cl | 0.363 | 19.1 µM | – |
| Cc1ccc(NC(=S)Nc2ccc(C)cn2)nc1 | > 200 | > 200 µM | – |
| COc1cc2c(cc1OC)C/C(=N\O)c1cc(OC)c(OC)cc1/C=C\2 | > 200 | 1.74 µM | – |

| SMILES | EC50 [µM] | IC50 | outcome |
| --- | --- | --- | --- |
| CCCCCCCCCCCCCCCCSS(=O)(=O)CCCCCCCC | > 74.1 | > 74.1 µM | – |
| Cc1ccc(C(=O)Nc2ccc(CP(=O)(O)O)cc2CP(=O)(O)O)cc1N | > 174 | > 174 µM | – |
| Cc1ccccc1N=CN(C)C | > 200 | 42.7 µM | – |
| Nc1ccc(N=Nc2ccc(-c3ccc(N=Nc4ccc(N)c5cc(S(=O)(=O)O)ccc45)cc3)cc2)c2ccc(S(=O)(=O)O)cc12 | – | – | active |
| CC1(C)OCC([C@H]2CC23SCCCS3)O1 (stereo not given in full) | > 200 | > 200 µM | – |
| O=C1CCC2(CC(Br)C(=O)c3ccccc32)C(=O)N1 (stereo not given) | > 407 | 81.3 µM | – |
| O=C(/C=C/c1ccccc1)c1ccc(Oc2ccccc2)cc1 | > 200 | 23.4 µM | – |
| OC1c2ccccc2-c2nc3cccccc-3c21 (stereo not given) | > 155 | 24 µM | – |
| COc1cc2c(cc1OCc1ccccc1)CNCC2 | > 794 | 145 µM | – |
| COc1ccc(C(=O)N/N=C/c2c(C)n(C)n(-c3ccccc3)c2=O)cc1 | > 200 | > 200 µM | – |
| O=c1c2ccccc2nc(-c2ccccc2)n1-c1nccs1 | > 200 | 22.4 µM | – |
| CC(C)OP(=O)(CCC(=O)C1(O)CCC2C3CCC4=CC(=O)CCC4(C)C3CCC21C)OC(C)C (stereo not given) | > 200 | 32.4 µM | – |
| c1ccc2[nH]c3[nH]c4[nH]c5ccccc5[nH]c4[nH]c3[nH]c2c1 | > 50.1 | > 50.1 µM | – |
| CC(O)(P(=O)(O)O)P(=O)(O)O.[NH-]CC[NH-].[NH-]CC[NH-].[Pd+2].[Pd+2] | > 200 | 87.1 µM | – |
| c1ccc(N2N=NC3C4CC(C5COCC54)C32)cc1 (stereo not given) | > 200 | > 200 µM | – |
| CN(C)c1ccc(/C=N/NC2=N/C(=C\c3ccco3)C(=O)N2)cc1 | > 100 | > 100 µM | – |
| CC(C)(C)[Si](C)(C)OC[C@H](CO)NC(=O)OCc1ccccc1 | > 200 | 38.9 µM | – |
| CCOC(=O)c1c(Br)c(-c2ccc(Br)cc2)c(Br)n1C | > 100 | 43.7 µM | – |
| O=c1c2ccccc2c(=O)n2n1CC=CC2 | – | – | inactive |
| Cc1nccnc1N1CCCCC1 | > 200 | > 200 µM | – |
| CN1NC2(CCCCC2)ON=C1c1ccccc1 | – | – | inactive |
| CC(C)C(=O)Oc1cc2c(=O)oc3c(OC(=O)C(C)C)c(OC(=O)C(C)C)cc4c(=O)oc(c1OC(=O)C(C)C)c2c34 | > 50.1 | > 50.1 µM | – |
| C/C(COc1ccccc1)=N\NC(N)=S | – | – | inactive |

| SMILES | EC50 [µM] | IC50 | outcome |
| --- | --- | --- | --- |
| O=C1OCCC12CN(Cc1ccccc1)N=N2 (stereo not given) | > 200 | > 200 µM | – |
| C/C(CC(=O)Nc1cccc([N+](=O)[O-])c1)=N\NC(=O)CC#N | > 832 | 447 µM | – |
| N#CC(C(=O)C(N)=O)c1ccccc1Cl (stereo not given) | > 427 | > 427 µM | – |
| CCN(CCCl)CCNc1c2ccccc2nc2ccc(OC)cc12 | – | – | inactive |
| Oc1ccccc1-c1n[nH]c(=S)n1/N=C/c1ccc(-c2ccc(Br)cc2)o1 | > 42.7 | > 42.7 µM | – |
| CC(=O)c1ccc(NC(=O)COC(=O)c2cccc3c(=O)c4ccccc4[nH]c23)cc1 | – | – | inactive |
| N#CC1CC2(C(=O)C1=O)c1ccccc1-c1ccccc12 (stereo not given) | – | – | inactive |
| CCOC(=O)CC1=N/C(=N/C(=N)N[N+](=O)[O-])SC1 | – | – | inactive |
| O=C(c1ccco1)N(C(=S)N1CCN(c2ccccn2)CC1)c1ccccc1 | > 47.9 | 46.8 µM | – |
| N#Cc1c(-c2ccccc2)cc(-c2ccc(Cl)cc2)[nH]c1=S | > 200 | 33.9 µM | – |
| O=[N+]([O-])c1ccc([N+](=O)[O-])c(Cl)c1 | > 200 | 3.16 µM | – |
| Cc1cc(S(=O)(=O)O)ccc1N=Nc1ccc(N=Nc2cc(S(=O)(=O)O)c3ccccc3c2O)c(C)c1 | > 100 | > 100 µM | – |
| C/C(=N\Oc1cc(Cl)ncn1)c1ccccn1 | > 200 | 30.2 µM | – |
| Nc1nc(=S)c2c(ncn2CC(O)CO)[nH]1 (stereo not given) | 363 | 525 µM | – |
| COC(=O)C(Cc1ccccc1)NC(=O)C(CS)NC(=O)OC(C)(C)C (stereo not drawn) (Boc-Cys-Phe-OMe; configuration not given here) | > 200 | 9.55 µM | – |
| O=C(NCc1ccccc1)c1n[nH][nH]c1=O | > 200 | > 200 µM | – |
| Cc1cccc(NC(=O)CC(=O)N2N=C(N(CCC#N)c3ccc(Cl)cc3)CC2c2ccccc2)c1 (stereo not given) | > 100 | > 100 µM | – |
| CCOC(=O)CN1CCSC1=NC#N | – | – | inactive |
| CN(CCC#N)c1ccc(/C=C(\C#N)c2ccc(Br)cc2)cc1 | > 200 | 4.57 µM | – |
| O=C(N/S(=N/S(=O)(=O)c1ccc(Br)cc1)C(Cl)(Cl)Cl)c1ccccc1 (stereo not given) | > 200 | > 200 µM | – |
| COc1cc(-c2nc(SC)nc3c2CCc2ccccc2-3)cc(OC)c1OC | > 200 | > 200 µM | – |
| O=C1CCc2ccccc2O1 | > 1700 | 1410 µM | – |
| N#CC(=C(c1ccccc1)c1ccccc1)c1ccccc1 | > 151 | > 151 µM | – |

| SMILES | EC50 [µM] | IC50 | outcome |
| --- | --- | --- | --- |
| CC1OC(n2ncc(=O)[nH]c2=O)C=CC1=O (stereo not given) | > 1120 | 10 µM and 6.92 µM | – |
| CC1(O)CCC2(CCC(C)(O)CC2=O)C(=O)C1 (stereo not given) | > 200 | > 200 µM | – |
| CC1=CC(=O)N(c2c(C)cccc2Cl)C(C)N1 (stereo not given) | > 1000 | > 1000 µM | – |
| COc1cc(Nc2cc(Cl)cc(Cl)c2)nc(N)n1 | > 200 | 27.5 µM | – |
| N#C/C(=C\c1ccc(Cl)cc1)c1ccc(C(=O)O)cc1 | > 200 | 110 µM | – |
| COC(=O)c1ccccc1NC(=O)/C(=N\NC(C)(C)C)C(C#N)c1nc(-c2ccc([N+](=O)[O-])cc2)cs1 (stereo not given) | > 69.2 | > 69.2 µM | – |
| Cc1ccc(OC2CC(n3cnc4c(=O)[nH]c(Br)nc43)OC2Oc2ccc(C)cc2)cc1 (stereo not given) | > 200 | 25.1 µM | – |
| CC(C(=O)O)n1c(=O)ssc1=O (stereo not given) | 63.1 | 123 µM | – |
| O=C(O)C12C3C4(C(=O)O)C1C1(C(=O)O)C2C3(C(=O)O)C41 (stereo not given) | > 200 | > 200 µM | – |
| CCSc1c2cc(OC)ccc2nc2ccc(OC)cc12 | > 200 | 6.92 µM | – |
| CN=C1Nc2ccccc2C(=S)N2CSC[C@@H]12 | > 200 | > 200 µM | – |
| Cc1cc2c(c(C(=O)NCC(=O)O)c1)Oc1c(cc(C)cc1C(=O)NCC(=O)O)S2 | > 200 | > 200 µM | – |
| Cn1c2ccccc2c(=NNc2ccc(C(=O)O)cc2)c2ccccc21 | > 200 | 13.8 µM | – |
| O=c1[nH]c2cc3[nH]c4ncccc4c(=O)c3cc2[nH]1 | 148 | > 200 µM | – |
| CC1(C)C(=O)C(=Cc2ccco2)C1=O | > 100 | > 100 µM | – |
| CCC1(C)N=C(C(N)=O)c2ncn(N=C(C)C)c2N1 (stereo not given) | > 200 | > 200 µM | – |
| CC1(C)COC(c2cccc(C3=NC(C)(C)CO3)n2)=N1 | > 26.3 | > 26.3 µM | – |
| Cc1c(N)c2ccccc2c(=O)n1C | > 1120 | 302 µM | – |
| O=c1[nH]ncc2c1ncn2C1CCC(CO)O1 (stereo not given) | 195 | > 200 µM | – |
| CC(CCC(=O)O)[C@H]1CCC2[C@H]3C(CC[C@@]21C)[C@@]1(C)CCC(O)C[C@H]1C[C@@H]3O (stereo not given in full) | > 200 | > 100 µM | – |
| CC12CCC(=O)N1c1ccc([N+](=O)[O-])cc1N2 (stereo not given) | – | – | inactive |
| Cc1cc(C)c2c(c1)CSCc1cc(C)cc(C)c1-2 | – | – | inactive |
